Measured values: PMC10938439, “C-3 Steroidal Hemiesters as Inhibitors of 17β-Hydroxysteroid Dehydrogenase Type 10” (ACS Omega, 2024)
Several values for one entry are separate records, joined by “and”; a condition that tells them apart may be missing. Equal entries are not always repeated. Where two headings read alike, the source gives them in different places.

Experiments:
[1] = test system: 17β-HSD10; design: method as in PMID 37458164; conditions: 17β-HSD10 inhibition, literature value; cited from earlier work
[2] = target: T1, 17β-HSD10 (Homo sapiens, UniProt Q99714); assay: Inhibition of 17β-estradiol to estrone transformation by purified recombinant 17β-HSD10 (NADH fluorescence); assay type: biochemical; conditions: for inhibition at 10 µM: read-out: Inhibition at 10 µM (%) (this study); for IC50: purified recombinant 17β-HSD10, 17β-estradiol as substrate, means ± SEM (n = 4); for inhibition at 1 µM: read-out: Inhibition at 1 µM (%) (this study)
T1 construct: inferred from Ni-NTA purification with imidazole elution; made in house; host or cells: E. coli BL21 (DE3)
T1 sequence (Q99714 1-261): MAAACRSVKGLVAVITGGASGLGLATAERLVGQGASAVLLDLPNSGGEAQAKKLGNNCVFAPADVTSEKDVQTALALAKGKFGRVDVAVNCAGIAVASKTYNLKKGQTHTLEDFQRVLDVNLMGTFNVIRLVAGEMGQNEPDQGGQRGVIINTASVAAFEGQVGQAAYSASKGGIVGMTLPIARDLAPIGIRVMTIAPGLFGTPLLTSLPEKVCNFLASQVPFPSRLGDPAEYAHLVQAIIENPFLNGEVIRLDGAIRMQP
Description: As standards, we used the known inhibitor AG18051 as the positive control and the published steroidal compounds,[18] namely, pregnenolone, testosterone, dihydrotestosterone, androsterone, epiandrosterone, and dehydroepiandrosterone.
17β-HSD10 was performed as described previously.[11] Briefly, the autoinduction and overexpression were performed at 25 °C for 18 h in the E. coli BL21 (DE3) strain. The bacterial pellet was resuspended in lysis buffer that consisted of sodium phosphate buffer ([…]), NaCl (150 mM), and imidazole (10 mM, pH 8.0) with 1 mg/mL lysozyme and benzonase (150 U/mL). cOmplete EDTA-free protease inhibitor cocktail was incubated for 20 min on ice and then sonicated (12 × 10 s pulses with 30 s pauses). The supernatant was applied to the Ni-NTA agarose resin after centrifugation (16 000g, 10 min, 4 °C). Then, the solution was incubated on ice for 1 h with gentle stirring.
The standard steroids were screened at 1 and 10 μM concentrations, and the tested compounds and standard AG18051 were screened at 10 μM concentration. For compounds with at least 50% inhibition of 17β-HSD10, the IC50 values were determined.
Steroid stock solutions (5 mM) were further diluted with DMSO to the working concentrations. DMSO was used as a vehicle control, and AG18051 was used as a control inhibitor. The enzyme activity was determined fluorometrically at 37 °C in the activity assay buffer [100 mM potassium phosphate buffer (pH 8.0)]. The general reaction mixture (200 μL per well) consisted of 17β-estradiol (25 μM, DMSO), NAD+ (500 μM, deionized water), recombinant 17β-HSD10 (45 nM), and different concentrations of inhibitor (2.2% (v/v) final concentration of DMSO as solvent). Before the addition of substrate, the reaction mixture of enzyme, cofactor, and inhibitor in the assay buffer was preincubated for 5 min at 37 °C. The increase of fluorescence (Ex/Em = 340/460 nm) due to the formation of NADH was monitored for 20 min (30 s intervals). For IC50 value determination, dose–response inhibition at 11 different concentrations of inhibitor (0.6–33.75 μM) was determined and the data were analyzed by GraphPad Prism 8.4.3 (GraphPad Software Inc.). All measurements were performed in a tetraplicate.

[3] = design: method as in PMID 30296546; conditions: cited from earlier work
[4] = design: method as in PMID 30296546; conditions: cited from earlier work; remark: listed apart in the source
[5] = test system: Caco-2 cells; design: method as in PMID 30296546; conditions: cited from earlier work
[6] = test system: HEK-293 cell line; design: method as in PMID 37458164; conditions: cited from earlier work
[7] = test system: 17β-HSD10; conditions: cited from earlier work; for Inhibition at 1 µM (%) Ayan et al. 2012: 1 µM steroid, different (cellular) assay, ref Ayan et al. 2012 (ref 18)
[8] = test system: 17β-HSD10; design: method as in PMID 30297283; conditions: in vitro, recombinant enzyme, cited from earlier work
[9] = 10 μM compound, 17β-estradiol as substrate, means ± SD (n = 4)

Row | SMILES | IC50 [2] | human plasma stability, % remaining after 8 h [3] [%] | rat plasma stability, % remaining after 8 h [4] [%] | Caco-2 cell permeability (50 μM) Papp [5] | Inhibition at 1 µM (%) Ayan et al. 2012 [7] [%] | inhibition at 1 µM [2] [%] | inhibition at 10 µM [2] [%] | other results
1 | O=C(C(c1ccccc1)n1cnc2[nH]ncc2c1=S)N1CCCCCC1 (stereo not shown) [AG18051, 1-azepan-1-yl-2-phenyl-2-(4-thioxo-1,4-dihydropyrazolo [3–d]pyrimidin-5-yl)-ethanone] | – | – | – | – | – | – | – | IC50 [1]: 0.09 ± 0.01 µM
2 | CC(=O)[C@H]1CC[C@H]2[C@@H]3CC=C4C[C@@H](OC(=O)CCCC(=O)O)CC[C@]4(C)[C@H]3CC[C@]12C [Compound 10, 20-Oxo-pregn-5-en-3β-yl Hemiglutarate] | 16.9 ± 1.33 µM | – | – | – | – | – | – | inhibition at 10 µM [2, 9]: ~50%
3 | CC[C@H]1CC[C@H]2[C@@H]3CC=C4C[C@@H](OC(=O)CCC(=O)O)CC[C@]4(C)[C@H]3CC[C@]12C [Compound 14, Pregn-5-en-3β-yl Hemisuccinate] | 9.94 ± 0.23 µM | 100 | 55 | 5.7 × 10^–6 cm/s | – | – | – | –
4 | CC[C@H]1CC[C@H]2[C@@H]3CC=C4C[C@@H](OC(=O)CCCC(=O)O)CC[C@]4(C)[C@H]3CC[C@]12C [Compound 15, Pregn-5-en-3β-yl Hemiglutarate] | 9.01 ± 0.43 µM | 100 | 99 | 1.9 × 10^–6 cm/s | – | – | – | –
5 | CC[C@H]1CC[C@H]2[C@@H]3CC=C4C[C@@H](OC(=O)CCCCC(=O)O)CC[C@]4(C)[C@H]3CC[C@]12C [Compound 16, Pregn-5-en-3β-yl Hemiadipate] | 9.29 ± 0.28 µM | 94 | 43 | 1.2 × 10^–6 cm/s | – | – | – | –
6 | C[C@@]12CCC[C@H]1[C@@H]1CC=C3C[C@@H](OC(=O)CCC(=O)O)CC[C@]3(C)[C@H]1CC2 [Compound 21, Androst-5-en-3β-yl Hemisuccinate] | 7.33 ± 0.45 µM | 99 | 88 | 1.0 × 10^–4 cm/s | – | – | – | –
7 | C[C@@]12CCC[C@H]1[C@@H]1CC=C3C[C@@H](OC(=O)CCCC(=O)O)CC[C@]3(C)[C@H]1CC2 [Compound 22, Androst-5-en-3β-yl Hemiglutarate] | ~6.95 µM and 6.95 µM | 98 | 57 | 1.2 × 10^–5 cm/s | – | – | – | –
8 | C[C@@]12CCC[C@H]1[C@@H]1CC=C3C[C@@H](OC(=O)CCCCCC(=O)O)CC[C@]3(C)[C@H]1CC2 [Compound 24, Androst-5-en-3β-yl Hemipimelate] | 7.17 ± 0.4 µM | 100 | 38 | 1.3 × 10^–6 cm/s | – | – | – | –
9 | CC(=O)[C@H]1CC[C@H]2[C@@H]3CCC4=C[C@@H](O)CC[C@]4(C)[C@H]3CC[C@]12C [Compound 26] | – | – | – | – | – | – | – | toxicity for HEK-293 cell line [6]: toxic
10 | COc1cccc(CN2CCN(C[C@@]3(O)CC[C@@]4(C)[C@@H](CC[C@@H]5[C@@H]4CC[C@]4(C)C(=O)CC[C@@H]54)C3)CC2)c1 [RM-532-46, (3α,5α,17α)-3-Hydroxy-3-[4-(3-methoxybenzyl)piperazin-1-yl]methylandrostan-17-one] | – | – | – | – | – | – | – | IC50 ([7]; cellular assay using HEK-293 cells): 0.55 µM; IC50 ([8]; 17β-estradiol, read-out: IC50 using 17β-estradiol as substrate): 610 µM; IC50 ([8]; allopregnanolone, read-out: IC50 using allopregnanolone as substrate): 235 µM
11 | C[C@]12CC[C@@H](O)C[C@@H]1CC[C@@H]1[C@@H]2CC[C@]2(C)C(=O)CC[C@@H]12 [androsterone] | – | – | – | – | 7.0 ± 5.9 | 3.2 ± 2.2 | 0 | –
12 | C[C@]12CC[C@H](O)CC1=CC[C@@H]1[C@@H]2CC[C@]2(C)C(=O)CC[C@@H]12 [dehydroepiandrosterone] | – | – | – | – | 0.0 ± 3.2 | 5.4 ± 3.7 | 6.6 ± 3.5 | –
13 | C[C@]12CCC(=O)C[C@@H]1CC[C@@H]1[C@@H]2CC[C@]2(C)[C@@H](O)CC[C@@H]12 [dihydrotestosterone] | – | – | – | – | 15 ± 0.8 | 0 | 6.3 ± 2 | –
14 | C[C@]12CC[C@H](O)C[C@@H]1CC[C@@H]1[C@@H]2CC[C@]2(C)C(=O)CC[C@@H]12 [epi-androsterone, epiandrosterone] | – | – | – | – | 6.0 ± 1.0 | 2 ± 4.9 | 7 ± 2.5 | –
15 | CC(=O)C1CCC2C3CC=C4CC(O)CCC4(C)C3CCC12C (stereo not shown) [pregnenolone] | – | – | – | – | 11 ± 2.6 | – | – | inhibition at 1 µM ([2]; 1 µM steroid, 17β-estradiol as substrate, means ± SD (n = 4)): 0%; inhibition at 10 µM [2, 9]: 5.9 ± 0.8%
16 | C[C@]12CC[C@H]3[C@@H](CCC4=CC(=O)CC[C@@]43C)[C@@H]1CC[C@@H]2O [testosterone] | – | – | – | – | 0.0 ± 3.2 | 10.3 ± 5.1 | 15.7 ± 3.8 | –
